Laboratory results as given in PMC13303826, “Nicotinonitrile based dual inhibitors of tubulin and topoisomerase II exhibit potent anticancer activity” (Scientific Reports, 2026).

Key:
HepG2 cells = assay: LDH release cytotoxicity assay, HepG2; assay type: cell-based; conditions: Homo sapiens, 48 h, mean ± SD, read-out: In vitro cytotoxicity IC50 µM ± SD, HepG2
Method: (§1) HepG2 (Human liver carcinoma), HCT116 (human colorectal carcinoma), MCF7 (human breast adenocarcinoma), and the normal human skin fibroblast (BJ-1) cell lines were purchased from the american type culture collection (Rockville, MD, USA) and maintained in RPMI-1640 medium which was supplemented with 10% heat-inactivated FBS, 100U/ml penicillin and 100U/ml streptomycin. The cells were grown at 37 °C in a humidified atmosphere of 5% CO2. All experiments were conducted thrice in triplicate (n = 3). All the values were represented as means ± SD. Significant differences between the means of parameters as well as IC50s were determined by probit analysis using SPSS software program (SPSS Inc., Chicago, IL).
(§2) To determine the effect of each synthesized compound on membrane permeability in HepG2, MCF-7 and HCT116 cancer cell lines as well as BJ-1 normal cell line, a lactate dehydrogenase (LDH) release assay was used[29]–[33]. The cells were seeded in 24-well culture plates at a density of 1 × 10^4 cells/well in 500 µL volume and allowed to grow for 18 h before treatment. After treatment with a series of different concentrations of each compound or DOX (positive control), the plates were incubated for 48 h. Then, the supernatant (40 µL) was transferred to a new 96 well to determine LDH release and 6% triton X-100 (40 µL) was added to the original plate for determination of total LDH. An aliquot of 0.1 M potassium phosphate buffer (100 µL, pH 7.5) containing 4.6 mM pyruvic acid was mixed to the supernatant using repeated pipetting. Then, 0.1 M potassium phosphate buffer (100 µL, pH 7.5) containing 0.4 mg/mL reduced β-NADH was added to the wells. The kinetic changes were read for 1 min using ELISA microplate reader in absorbance at wavelength 340 nm. This procedure was repeated with 40 µL of the total cell lysate to determine total LDH. The percentage of LDH release was determined by dividing the LDH released into the media by the total LDH following cell lysis in the same well. The cell Passage numbers for MCF 7 = P13, Hep G2 = P15, HCT 116 = P 9.
(§3) All experiments were conducted in triplicate (n = 3). All the values were represented as mean ± SD. Significant differences between the means of parameters as well as IC50s were determined by probit analysis using SPSS software program (SPSS Inc., Chicago, IL).

HCT116 cells = assay: LDH release cytotoxicity assay, HCT116; assay type: cell-based; conditions: Homo sapiens, HCT-116, 48 h, mean ± SD, read-out: In vitro cytotoxicity IC50 µM ± SD, HCT116
Method: as §1, §2, §3

MCF7 cells = assay: LDH release cytotoxicity assay, MCF7; assay type: cell-based; conditions: Homo sapiens, 48 h, mean ± SD, read-out: In vitro cytotoxicity IC50 µM ± SD, MCF7
Method: as §1, §2, §3

beta-tubulin = assay: Inhibition of tubulin polymerization in MCF-7 cells (beta-tubulin SimpleStep ELISA); assay type: cell-based, human; conditions: MCF7 cells, concentration not given
Text: Beta-tubulin in vitro simple step ELISA® (Enzyme-Linked Immunosorbent Assay) kit is designed for quantitative measurement of beta-tubulin protein in human cell and tissue homogenate extract samples.
The SimpleStep ELISA® employs an affinity tag labeled capture antibody and a reporter conjugated detector antibody which immunocapture the sample analyte in solution. This entire complex (capture antibody/analyte/detector antibody) is in turn immobilized via immunoaffinity of an anti-tag antibody coating the well. To perform the assay, samples or standards are added to the wells, followed by the antibody mix. After incubation, the wells are washed to remove unbound material. TMB development solution is added and during incubation is catalyzed by horseradish peroxidase (HRP), generating blue coloration. This reaction is then stopped by addition of stop solution completing any color change from blue to yellow. Signal is generated proportionally to the amount of bound analyte and the intensity is measured at 450 nm. Optionally, instead of the endpoint reading, development of TMB can be recorded kinetically at 600 nm. The concentration of beta-tubulin protein in the samples is determined by comparing the optical density (OD) of the samples to the standard curve. Each experiment was repeated two times (Table 2).

Topo II = assay: Inhibition of topoisomerase II in MCF-7 cells (TOP2B sandwich ELISA); assay type: cell-based, human; conditions: MCF7 cells, concentration not given
Method: Mouse TOP2B/Topoisomerase II Beta ELISAKit (Sandwich ELISA) is designed for the quantitative measurement of Topo II enzyme.
This assay is based on the sandwich ELISA principle. Each well of the supplied microtiter plate has been pre-coated with a target specific capture antibody. Standards or samples are added to the wells, and the target antigen binds to the capture antibody. Unbound standard or sample is washed away. A biotin-conjugated detection antibody is then added which binds to the captured antigen. Unbound detection antibody is washed away. An avidin-horseradish peroxidase (HRP) conjugate is then added which binds to the biotin. Unbound avidin-HRP conjugate is washed away. A TMB substrate is then added which reacts with the HRP enzyme resulting in color development. A sulfuric acid stop solution is added to terminate color development reaction and then the optical density (OD) of the well is measured at a wavelength of 450 nm ± 2 nm. An OD standard curve is generated using known antigen concentrations; the OD of an unknown sample can then be compared to the standard curve to determine its antigen concentration. Each experiment was repeated two times (Table 3).

BJ1 normal cells = assay: LDH release cytotoxicity assay, normal skin fibroblasts BJ1; assay type: cell-based, human; conditions: non-tumor BJ1 fibroblasts
Method: as §1, §2, §3

Structure (SMILES) | IC50 (HepG2 cells) [µM] | IC50 (HCT116 cells) [µM] | IC50 (MCF7 cells) [µM] | tubulin polymerization % inhibition (beta-tubulin) [%] | Topo II % inhibition (Topo II) [%] | Cytotoxicity / selectivity toward BJ1 normal cells (in words) (BJ1 normal cells)
COc1cc(OC)cc(-c2cc(-c3ccc(OC)c(OC)c3)n3nnnc3c2C#N)c1 [Compound 29, 5-(3,4-dimethoxyphenyl)-7-(3,5-dimethoxyphenyl)tetrazolo[1,5-a]pyridine-8-carbonitrile] | 27.1 ± 2.5 | 55.4 ± 5.1 | 3.1 ± 0.3 |  |  | 
COc1cc(-c2cc(-c3ccco3)c(C#N)c(N=P(c3ccccc3)(c3ccccc3)c3ccccc3)n2)cc(OC)c1OC [Compound 40, 4-(Furan-2-yl)-6-(3,4,5-trimethoxyphenyl)-2-((triphenyl-λ^5-phosphaneylidene)amino)nicotino-nitrile] | 27.7 ± 2.1 | 55.7 ± 4.9 | 5.7 ± 0.2 |  |  | 
COc1ccc(-c2cc(-c3cc(OC)c(OC)c(OC)c3)c(C#N)c(Cl)n2)cc1 [Compound 18, 2-Chloro-6-(4-methoxyphenyl)-4-(3,4,5-trimethoxyphenyl)nicotinonitrile] | 26.2 ± 2.5 | 45.6 ± 4.1 | 2.9 ± 0.2 |  |  | 
COc1ccc(-c2cc(-c3cc(OC)cc(OC)c3)c(C#N)c(Cl)n2)cc1 [Compound 22, 2-Chloro-4-(3,5-dimethoxyphenyl)-6-(4-methoxyphenyl)nicotinonitrile] | 25.3 ± 2.3 | 36.8 ± 3.5 | 2.6 ± 0.2 | 70.9 | 42 | 
COc1cc(-c2cc(-c3cc(OC)c(OC)c(OC)c3)c(C#N)c(N=P(c3ccccc3)(c3ccccc3)c3ccccc3)n2)cc(OC)c1OC [Compound 36, 4,6-Bis(3,4,5-trimethoxyphenyl)-2-((triphenyl-λ^5-phosphaneylidene)amino)nicotinonitrile] | 25.2 ± 2.1 | 41.7 ± 4.1 | 3 ± 0.1 |  |  | 
COc1cc(OC)cc(-c2cc(-c3ccc(OC)c(OC)c3)nc(N=P(c3ccccc3)(c3ccccc3)c3ccccc3)c2C#N)c1 [Compound 37, 6-(3,4-Dimethoxyphenyl)-4-(3,5-dimethoxyphenyl)-2-((triphenyl-λ^5-phosphaneylidene)amino)-nicotinonitrile] | 29.3 ± 2.5 | 36 ± 3.3 | 2.6 ± 0.1 | 74.3 | 82.4 | 
COc1cc(-c2cc(-c3ccco3)c(C#N)c(Cl)n2)cc(OC)c1OC [Compound 24, 2-Chloro-4-(furan-2-yl)-6-(3,4,5-trimethoxyphenyl)nicotinonitrile] | 22.7 ± 2.1 | 49.3 ± 4.2 | 2.5 ± 0.2 | 55.4 | 55.3 | 
COc1cc(-c2cc(-c3ccco3)c(C)c3nnnn23)cc(OC)c1OC [Compound 32, 7-(furan-2-yl)-8-methyl-5-(3,4,5-trimethoxyphenyl)tetrazolo[1,5-a]pyridine] | 28.2 ± 2.5 | 98 ± 8.6 | 3 ± 0.3 |  |  | 
COc1cc(OC)cc(-c2cc(-c3ccc(OC)c(OC)c3)nc(Cl)c2C#N)c1 [Compound 21, 2-Chloro-6-(3,4-dimethoxyphenyl)-4-(3,5-dimethoxyphenyl)nicotinonitrile] | 12.3 ± 1.5 | 48.1 ± 4.2 | 2.8 ± 0.2 |  |  | 
COc1ccc(-c2cc(-c3ccc(OC)c(OC)c3)n3nnnc3c2C#N)cc1 [Compound 31, 5-(3,4-dimethoxyphenyl)-7-(4-methoxyphenyl)tetrazolo[1,5-a]pyridine-8-carbonitrile] | 25.7 ± 2.4 | 31 ± 2.5 | 3.1 ± 0.3 |  |  | 
COc1ccc(-c2cc(-c3ccc(OC)c(OC)c3)nc(Cl)c2C#N)cc1 [Compound 23, 2-Chloro-6-(3,4-dimethoxyphenyl)-4-(4-methoxyphenyl)nicotinonitrile] | 29.4 ± 2.3 | 49.1 ± 5.1 | 2.6 ± 0.2 |  |  | 
COc1ccc(-c2cc(-c3cc(OC)c(OC)c(OC)c3)c(C#N)c(Cl)n2)cc1OC [Compound 19, 2-Chloro-6-(3,4-dimethoxyphenyl)-4-(3,4,5trimethoxyphenyl)nicotinonitrile] | 24.1 ± 2.2 | 44.1 ± 4.7 | 2.7 ± 0.2 |  |  | 
COc1cccc2c1C(=O)c1c(O)c3c(c(O)c1C2=O)C[C@@](O)(C(=O)CO)C[C@@H]3O[C@H]1C[C@H](N)[C@H](O)[C@H](C)O1 [DOX, doxorubicin, reference compound] | 2.6 ± 0.2 | 12.5 ± 1.5 | 2.8 ± 0.3 |  | 81.6 | 
COc1ccc(-c2cc(-c3cc(OC)cc(OC)c3)c(C#N)c3nnnn23)cc1 [Compound 30, 7-(3,5-dimethoxyphenyl)-5-(4-methoxyphenyl)tetrazolo[1,5-a]pyridine-8-carbonitrile] | 27.1 ± 2.2 | 40.5 ± 3.3 | 3.2 ± 0.2 |  |  | 
Cc1cc(-c2ccco2)c(C#N)c2nnnn12 [Compound 33, 7-(furan-2-yl)-5-methyltetrazolo[1,5-a]pyridine-8-carbonitrile] | 25.2 ± 2.5 | 40.7 ± 3.9 | 2.6 ± 0.2 | 68.9 |  | 
COc1cc(-c2cc(-c3cc(OC)c(OC)c(OC)c3)n3nnnc3c2C#N)cc(OC)c1OC [Compound 28, 5,7-bis(3,4,5-trimethoxyphenyl)tetrazolo[1,5-a]pyridine-8-carbonitrile] | 29.9 ± 3.1 | 78.6 ± 5.9 | 3 ± 0.2 |  |  | 
COc1ccc(-c2cc(-c3cc(OC)c(OC)c(OC)c3)c(C#N)c(N=P(c3ccccc3)(c3ccccc3)c3ccccc3)n2)cc1OC [Compound 35, 6-(3,4-Dimethoxyphenyl)-4-(3,4,5-trimethoxyphenyl)-2-((triphenyl-λ^5-phosphaneylidene)-amino)nicotinonitrile] | 32.4 ± 3.1 | 57.6 ± 4.1 | 2.7 ± 0.1 | 61.9 |  | 
COc1ccc(-c2cc(-c3cc(OC)c(OC)c(OC)c3)c(C#N)c3nnnn23)cc1OC [Compound 27, 5-(3,4-dimethoxyphenyl)-7-(3,4,5-trimethoxyphenyl)tetrazolo[1,5-a]pyridine-8-carbonitrile] | 25.5 ± 2.4 | 60.1 ± 6.2 | 2.5 ± 0.2 | 49.8 |  | 
COc1ccc(-c2cc(-c3cc(OC)c(OC)c(OC)c3)c(C#N)c(N=P(c3ccccc3)(c3ccccc3)c3ccccc3)n2)cc1 [Compound 34, 6-(4-Methoxyphenyl)-4-(3,4,5-trimethoxyphenyl)-2-((triphenyl-λ^5-phosphaneylidene)amino)-nicotinonitrile] | 28.4 ± 2.3 | 49.9 ± 4.2 | 5.1 ± 0.2 |  |  | 
COc1ccc(-c2cc(-c3ccc(OC)c(OC)c3)nc(N=P(c3ccccc3)(c3ccccc3)c3ccccc3)c2C#N)cc1 [Compound 39, 6-(3,4-Dimethoxyphenyl)-4-(4-methoxyphenyl)-2-((triphenyl-λ^5-phosphaneylidene)amino)-nicotinonitrile] | 12.6 ± 1.1 | 32.5 ± 3.2 | 3 ± 0.1 |  |  | good selectivity
